Assay results: US20020107401A1, “Production of phosphonopyrazoles” (MONSNTO TECHNOLOGY LLC., priority 2000, published 2002)

Tested on: wheat variety 'OSLO'
Assay: Chemical hybridizing agent assay for male sterility (male gametocidal activity), foliar spray, seed counts
Assay type: in vivo
Experimental: The compounds of structure 3 and analogs are applied at a rate of 50-1000 μg/plant to cause pollen sterility. The male gametocidal activity is determined on the wheat variety ‘OSLO’, a double-dwarf hard red spring wheat. The wheat seed is planted to a depth of 0.5 to 1 inch (1-2.5 cm) in a 6-inch long (15 cm) conetainer (a cone shaped container, one seed per conetainer). The conetainers are filled with Metromix 200 potting soil supplemented with a slow release fertilizer, Osmocote and Sierra combined at 93 g/cu ft soil for a NPK of 31-20-24. Micromax with micronutrients is added at 17 g/cu ft rate. Fertilizer supplier is Hummerts, Earth City, Mo. 63045. The RLC-4 conetainers are 1×6 inch (2.5×15 cm) with a capacity of 4 cu in. (Stuewe & Sons, Inc., Corvallis, Oreg., 97333-9461). These are loaded into racks of 100 that occupy a 1.0 ft by 1.0 ft area. After seeding, the racks are placed in growth chambers with 14/10 hour day/night cycle at 18° C. These chambers are equipped with metal halide lamps that deliver approximately 300 μE/m^2/sec. Humidity is maintained at 50%, and plants are watered as needed. Approximately six weeks after seeding, wheat plants are selected for chemical application at or just prior to flag-leaf emergence from the boot (Feekes Scale 7.5-8.0) (Large, 1954. Plant Pathology 3:128-129). Plants are placed in a rack containing cardboard dividers to prevent each from being cross contaminated by an adjacent spray. The following procedures are used to evaluate the activity of the compounds of the invention for inducing male sterility in cereals. The plant heights vary and as uniformity is required for chemical application, the top 0-10 cm are removed by excision, such that the plant height is flush with the top of the divider. Prior to application, a 50 mL solution of DMSO (dimethylsulfoxide) containing the chemical hybridizing agent is diluted with 150 mL of water containing 1% SILWET L-77 surfactant (Witco Corp., Greenwich, Conn. 06831-2559) plus 2% humectant (glycerin, supplied by VWR Scientific Products Co.). The formulated chemicals are applied foliarly as an atomized spray onto the plants. After application, the plants are moved into growth chambers and allowed to grow until the heads emerge from the boot. Prior to anther extrusion (approximately 10 to 14 days after treatment), the plants are placed back into dividers in order to isolate the seed heads and to prevent cross-pollination. The plants are moved to a greenhouse, which has similar environmental conditions as the growth chambers. Approximately one week later (3 weeks after treatment (WAT) and at anther extrusion), open head morphology ratings are initiated. Plants are rated four times over a period of eight days (Table 2). The chemical hybridizing agent Genesis® (a registered Trade Mark of the Monsanto Co) is used as the positive control and for comparative purposes as to the rate of application and the efficacy as determined by percent sterility. The negative control is treatment of the wheat plants with the compounds making up the formulation of surfactant and humectant without the chemical compositions being assayed as chemical hybridizing agents. The data in Table 2 is expressed as % Sterility=(1-(Ave. normalized seed counts of sample/Ave. normalized seed counts of controls))*100 with the treatments comprising foliar application and rate titration at Feekes stage 8, across five replicates. Approximately two weeks after open head ratings are completed (six WAT), seed counts are collected.

[1] = Table 2, rate 50 μg/plant, foliar, Feekes 8
[2] = Table 2, rate 125 μg/plant, foliar, Feekes 8
[3] = Table 2, rate 250 μg/plant, foliar, Feekes 8
[4] = Table 2, rate 500 μg/plant, foliar, Feekes 8
[5] = Table 2, rate 1000 μg/plant, foliar, Feekes 8
[6] = Table 2, rate 50 μg/plant, foliar, Feekes 6
[7] = Table 2, rate 125 μg/plant, foliar, Feekes 6
[8] = Table 2, rate 250 μg/plant, foliar, Feekes 6
[9] = Table 2, rate 500 μg/plant, foliar, Feekes 6

Molecule	Sterility (%) [1] [%]	Sterility (%) [2] [%]	Sterility (%) [3] [%]	Sterility (%) [4] [%]	Sterility (%) [5] [%]	Sterility (%) [6] [%]	Sterility (%) [7] [%]	Sterility (%) [8] [%]	Sterility (%) [9] [%]	also measured
CCCCn1cc(P(=O)(OC)OC)c(=O)n1-c1cc(C)cc(C)c1 [Compound 5d, Dimethyl[1-butyl-2-(3,5-dimethylphenyl)-2,3-dihydro-3-oxo-pyrazol-4-yl]phosphonate]										Sterility (%) (Table 4, rate 50 μg/plant): 29%; Sterility (%) (Table 4, rate 125 μg/plant): 0%; Sterility (%) (Table 4, rate 250 μg/plant): 28%; Sterility (%) (Table 4, rate 500 μg/plant): 24%; Sterility (%) (Table 4, rate 1000 μg/plant): 41%
COP(=O)(OC)c1cnn(-c2ccc(Br)cc2)c1O [Compound 3d, Dimethyl [1-(4-bromophenyl)-5-hydroxy-1H-pyrazol-4-yl]phosphonate]	0	0	17	15	54					
methyl potassium[4-chlorophenyl-3-hydroxy-1H-pyrazol-4-yl]phosphonate [Compound 3m]	28	20	16	15		23	0	31	43	
COP(=O)(OC)c1cnn(-c2ccc(F)cc2)c1O [Compound 3b, Dimethyl [1-(4-fluorophenyl)-5-hydroxy-1H-pyrazol-4-yl]phosphonate]	23	30	90	91	98					
COP(=O)(OC)c1cn(-c2ccc(Br)cc2)nc1O [Compound 8a, Dimethyl [1-(4-bromophenyl)-3-hydroxy-1H-pyrazol-4-yl]phosphonate]										Sterility (%) (Table 3, rate 50 μg/plant): 12%; Sterility (%) (Table 3, rate 125 μg/plant): 0%; Sterility (%) (Table 3, rate 250 μg/plant): 44%; Sterility (%) (Table 3, rate 500 μg/plant): 25%; Sterility (%) (Table 3, rate 1000 μg/plant): 15%
O=P(O)(O)C1=CNN(c2ccc(Cl)cc2)C1O (stereo not drawn) [Compound 3j, 2-(4-Chlorophenyl)-3-hydroxy-1H-pyrazol-4-yl phosphonic acid]	31	13	0	12		4	7	0	35	
COP(=O)(OC)c1cnn(-c2ccccc2Cl)c1O [Compound 3c, Dimethyl [1-(2-chlorophenyl)-5-hydroxy-1H-pyrazol-4-yl]phosphonate]	25	29	18	53	36					
CCn1cc(P(=O)(OC)OC)c(=O)n1-c1ccc(Cl)cc1 [Compound 5a, Dimethyl [2-(4-chlorophenyl)-2,3-dihydro-1-ethyl-3-oxo-pyrazol-4-yl]phosphonate]										Sterility (%) (Table 4, rate 50 μg/plant): 11%; Sterility (%) (Table 4, rate 125 μg/plant): 26%; Sterility (%) (Table 4, rate 250 μg/plant): 66%; Sterility (%) (Table 4, rate 500 μg/plant): 29%; Sterility (%) (Table 4, rate 1000 μg/plant): 10%
COP(=O)(OC)c1c(-c2ccccc2)nn(-c2ccc(Cl)cc2)c1O [Compound 10a, Dimethyl [1-(4-chlorophenyl)-5-hydroxy-3-phenyl-1H-pyrazol-4-yl]phosphonate]	1	0	27	18	45					
COP(=O)(OC)c1cnn(-c2ccc(Cl)cc2)c1OCc1ccccc1[N+](=O)[O-] [Compound 4b, Dimethyl{1-(4-chlorophenyl)-5-[(2-nitrobenzyl)oxy]-1H-pyrazol-4-yl}phosphonate]	16	0	57	94		0	0	0	0	
COP(=O)(OC)c1cnn(-c2ccc(Cl)cc2)c1OCc1ccc(Cl)cc1 [Compound 4a, Dimethyl{1-(4-Chlorophenyl)-5-[(4-chlorobenzyl)oxy]-1H-pyrazol-4-yl}phosphonate]	48	80	93	93		0	0	9	34	
COP(=O)(OC)c1cnn(-c2ccc(Cl)cc2)c1O [Compound 3a, Dimethyl [1-(4-chlorophenyl)-5-hydroxy-1H-pyrazol-4-yl]phosphonate]	39	34	79	92		27	0	0	49	
COP(=O)(OC)c1c(-c2ccccc2)nn(-c2cc(C)cc(C)c2)c1O [Compound 10b, Dimethyl[1-(3,5-dimethylphenyl)-5-hydroxy-3-phenyl-1H-pyrazol-4-yl]phosphonate]	5	0	11	33	45					
CCn1cc(P(=O)(OC)OC)c(=O)n1-c1cc(C)cc(C)c1 [Compound 5c, Dimethyl[2-(3,5-dimethylphenyl)-2,3-dihydro-1-ethyl-3-oxo-pyrazol-4-yl]phosphonate]										Sterility (%) (Table 4, rate 50 μg/plant): 8%; Sterility (%) (Table 4, rate 125 μg/plant): 1%; Sterility (%) (Table 4, rate 250 μg/plant): 16%; Sterility (%) (Table 4, rate 500 μg/plant): 48%; Sterility (%) (Table 4, rate 1000 μg/plant): 31%
COP(=O)(OC)c1cnn(C2CCCCC2)c1O [Compound 3e, Dimethyl [1-cyclohexyl-5-hydroxy-1H-pyrazol-4-yl]phosphonate]	15	3	17	26	44					
Cc1cc(C)cc(-n2ncc(P(=O)([O-])O)c2O)c1.[K+] [Compound 3n, hydrogen potassium[2-(3,5-dimethylphenyl)-3-hydroxy-1H-pyrazol-4-yl]phosphonate]	15	11	4	20		7	7	10	31	
COP(=O)([O-])c1cnn(-c2cc(C)cc(C)c2)c1O.[K+] [Compound 3l, methyl potassium[2-(3,5-dimethylphenyl)-3-hydroxy-1H-pyrazol-4-yl]phosphonate]	12	28	24	39		0	17	39	54	
COP(=O)(OC)c1cn(C2CCCCC2)n(-c2ccc(Cl)cc2)c1=O [Compound 5b, Dimethyl[2-(4-chlorophenyl)-1-cyclohexyl-2,3-dihydro-3-oxo-pyrazol-4-yl]phosphonate]										Sterility (%) (Table 4, rate 50 μg/plant): 0%; Sterility (%) (Table 4, rate 125 μg/plant): 14%; Sterility (%) (Table 4, rate 250 μg/plant): 20%; Sterility (%) (Table 4, rate 500 μg/plant): 23%; Sterility (%) (Table 4, rate 1000 μg/plant): 62%
